Assay results reported in patent US12077503B2, “Substituted cyclic amides and their use as herbicides” (FMC CORPORATION, priority 2015, dated 2024).

How the values were obtained:
Type in all cases: in vivo
[1] = tested on: Kochia (Kochia scoparia); assay: Test A preemergence; details: Bassia scoparia, pre-emergence, 240 h
How it was run: (§1)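 Visual injury scores from 0, no effect, to 100, complete control, were assigned versus untreated controls roughly 10 d after treatment in the greenhouse. Test chemicals, formulated with surfactant in a non-phytotoxic solvent, were applied to planted seeds as a preemergence soil spray or postemergence to one- to two-leaf plants 2 to 10 cm tall, in loam–sand soil.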

[2] = tested on: Galium (catchweed bedstraw, Galium aparine); assay: Test A postemergence; details: Galium, post-emergence, 240 h, Postemergence
How it was run: as §1

[3] = tested on: Kochia (Kochia scoparia); assay: Test A postemergence; details: Bassia scoparia, post-emergence, 240 h, Postemergence
How it was run: as §1

[4] = tested on: barnyardgrass (Echinochloa crus-galli); assay: Test A postemergence; details: Echinochloa crus-galli, post-emergence, 240 h, Postemergence
How it was run: as §1

[5] = tested on: blackgrass (Alopecurus myosuroides); assay: Test A postemergence; details: Alopecurus myosuroides, post-emergence, 240 h, Postemergence
How it was run: as §1

[6] = tested on: corn (Zea mays); assay: Test A postemergence; details: Zea mays, post-emergence, 240 h, Postemergence
How it was run: as §1

[7] = tested on: giant foxtail (Setaria faberii); assay: Test A postemergence; details: Setaria faberi, post-emergence, 240 h, Postemergence
How it was run: as §1

[8] = tested on: pigweed (Amaranthus retroflexus); assay: Test A postemergence; details: Amaranthus retroflexus, post-emergence, 240 h, Postemergence
How it was run: as §1

[9] = tested on: ragweed (common ragweed, Ambrosia elatior); assay: Test A postemergence; details: Ambrosia artemisiifolia, post-emergence, 240 h, Postemergence
How it was run: as §1

[10] = tested on: ryegrass, Italian (Italian ryegrass, Lolium multiflorum); assay: Test A postemergence; details: Lolium multiflorum, post-emergence, 240 h, Postemergence
How it was run: as §1

[11] = tested on: wheat (Triticum aestivum); assay: Test A postemergence; details: Triticum aestivum, post-emergence, 240 h, Postemergence
How it was run: as §1

[12] = tested on: barnyardgrass (Echinochloa crus-galli); assay: Test B flooded paddy test; details: Echinochloa crus-galli, 250 g ai/ha, Flood; 0 to 100 scale where 0 is no effect and 100 is complete control; read-out: Barnyardgrass plant response rating
How it was run: (§2)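 Rating scale 0–100 (visual, vs untreated controls) after a 13–15 d greenhouse period; application to the flood layer, 3 cm above soil and maintained; plants at 2-leaf stage when treated.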

[13] = tested on: ducksalad (Heteranthera limosa); assay: Test B flooded paddy test; details: Heteranthera limosa, 250 g ai/ha, Flood; 0 to 100 scale where 0 is no effect and 100 is complete control; read-out: Ducksalad plant response rating
How it was run: as §2

[14] = tested on: rice (Oryra sativa); assay: Test B flooded paddy test; details: Oryza sativa, 250 g ai/ha, Flood; 0 to 100 scale where 0 is no effect and 100 is complete control; read-out: Rice plant response rating
How it was run: as §2

[15] = tested on: sedge, umbrella (small-flower umbrella sedge, Cyperus difformis); assay: Test B flooded paddy test; details: Cyperus difformis, 250 g ai/ha, Flood; 0 to 100 scale where 0 is no effect and 100 is complete control; read-out: Sedge, Umbrella plant response rating
How it was run: as §2

## Cc1cc(F)cc([C@H]2CNC(=O)[C@@H]2C(=O)Nc2cccc(F)c2F)c1 [Compound 1309]
[1]; 500 g ai/ha, preemergence, 0 to 100 scale where 0 is no effect and 100 is complete control, read-out: Kochia plant response rating
  pest or weed control at 500 g/ha: 60%
[1]; Preemergence, 125 g ai/ha, 0 to 100 scale (0 no effect, 100 complete control), read-out: Plant response rating, Kochia
  pest or weed control at 125 g/ha: 60%
[2]; 125 g ai/ha, visual rating about 10 d after treatment, read-out: Galium plant response rating (0 to 100 scale)
  pest or weed control at 125 g/ha: 30%
[2]; 500 g ai/ha, visual injury, 0 to 100 scale (0 no effect, 100 complete control), approx. 10 d, read-out: Plant response rating, Galium
  pest or weed control at 500 g/ha: 50%
[3]; 125 g ai/ha, visual rating about 10 d after treatment, read-out: Kochia plant response rating (0 to 100 scale)
  pest or weed control at 125 g/ha: 0%
[3]; 500 g ai/ha, visual injury, 0 to 100 scale (0 no effect, 100 complete control), approx. 10 d, read-out: Plant response rating, Kochia
  pest or weed control at 500 g/ha: 50%
[4]; 125 g ai/ha, visual rating about 10 d after treatment, read-out: Barnyardgrass plant response rating (0 to 100 scale, 0 no effect, 100 complete control)
  pest or weed control at 125 g/ha: 90%
[4]; 500 g ai/ha, visual injury, 0 to 100 scale (0 no effect, 100 complete control), approx. 10 d, read-out: Plant response rating, Barnyardgrass
  pest or weed control at 500 g/ha: 90%
[5]; 125 g ai/ha, visual rating about 10 d after treatment, read-out: Blackgrass plant response rating (0 to 100 scale)
  pest or weed control at 125 g/ha: 0%
[5]; 500 g ai/ha, visual injury, 0 to 100 scale (0 no effect, 100 complete control), approx. 10 d, read-out: Plant response rating, Blackgrass
  pest or weed control at 500 g/ha: 60%
[6]; 125 g ai/ha, visual rating about 10 d after treatment, read-out: Corn plant response rating (0 to 100 scale)
  plant injury at 125 g/ha: 0%
[6]; 500 g ai/ha, visual injury, 0 to 100 scale (0 no effect, 100 complete control), approx. 10 d
  Corn plant response rating (crop injury, 0 = no effect, 100 = complete kill) at 500 g/ha: 20%
[7]; 125 g ai/ha, visual rating about 10 d after treatment, read-out: Foxtail, Giant plant response rating (0 to 100 scale)
  pest or weed control at 125 g/ha: 30%
[7]; 500 g ai/ha, visual injury, 0 to 100 scale (0 no effect, 100 complete control), approx. 10 d, read-out: Plant response rating, Foxtail, Giant
  pest or weed control at 500 g/ha: 70%
[8]; 125 g ai/ha, visual rating about 10 d after treatment, read-out: Pigweed plant response rating (0 to 100 scale)
  pest or weed control at 125 g/ha: 0%
[8]; 500 g ai/ha, visual injury, 0 to 100 scale (0 no effect, 100 complete control), approx. 10 d, read-out: Plant response rating, Pigweed
  pest or weed control at 500 g/ha: 0%
[9]; 125 g ai/ha, visual rating about 10 d after treatment, read-out: Ragweed plant response rating (0 to 100 scale)
  pest or weed control at 125 g/ha: 0%
[9]; 500 g ai/ha, visual injury, 0 to 100 scale (0 no effect, 100 complete control), approx. 10 d, read-out: Plant response rating, Ragweed
  pest or weed control at 500 g/ha: 30%
[10]; 125 g ai/ha, visual rating about 10 d after treatment, read-out: Ryegrass, Italian plant response rating (0 to 100 scale)
  pest or weed control at 125 g/ha: 0%
[10]; 500 g ai/ha, visual injury, 0 to 100 scale (0 no effect, 100 complete control), approx. 10 d, read-out: Plant response rating, Ryegrass, Italian
  pest or weed control at 500 g/ha: 20%
[11]; 125 g ai/ha, visual rating about 10 d after treatment, read-out: Wheat plant response rating (0 to 100 scale)
  plant injury at 125 g/ha: 20%
[11]; 500 g ai/ha, visual injury, 0 to 100 scale (0 no effect, 100 complete control), approx. 10 d, read-out: Plant response rating, Wheat
  plant injury at 500 g/ha: 20%
[12]
  pest or weed control at 250 g/ha: 60%
[13]
  pest or weed control at 250 g/ha: 100%
[14]
  pest or weed control at 250 g/ha: 20%
[15]
  pest or weed control at 250 g/ha: 0%
